Measured values: ChEMBL document CHEMBL5727915, “Substituted [5,6]cyclic-4(3H)-pyrimidinones as anticancer agents” (2020)

Each compound was assayed against CDC7/DBF4 (Cell division cycle 7-related protein kinase/Activator of S phase kinase) (Homo sapiens, UniProt O00311) (assay: Biochemical Assay: Biochemical assay was tested in the U-shaped bottom 384 plate (corning, #4514) with a final volume of […] at 27° C. The concentration of CDC7 was optimized by the enzyme titration experiment. CDC7 kinase was diluted in assay buffer (40 mM Tris.HCl pH 7.25, 100 ug/mL BSA, and 20 mM MgCl2) to get 2.4× enzyme solutions. Compounds were dissolved in 10 mM DMSO, and series diluted in DMSO from 0.3 mM to 0.3 nM (5 concentration pts); All dilutions were diluted 30× in assay buffer to get 6× compounds solutions. MCM2 Substrate and ATP were diluted to 2.4× mixed solution. Add 2 ul test compound solution to 384 assay plate, then add 5 ul substrate/ATP mixed solution, at last add 5 ul enzyme solution, incubate at 27° C. for 180 mins. Transfer 5 ul reaction solution to another 384 assay plate, then add 5 ul ADP-Glo™ Reagent (Promega) to each well and incubate at 27° C. for 40 mins; Add 10 ul Kinase Detection Reagent (Promega) to each well and incubate at 27° C. for 30 mins. 10 uM CDC7-3 compound was used as 100% inhibition while 100% DMSO control was used as 0% inhibition. Each test has three replications at least.).
Format: protein-complex assay

CDC7/DBF4 (Cell division cycle 7-related protein kinase/Activator of S phase kinase), sequence (Q9UBU7 whole entry): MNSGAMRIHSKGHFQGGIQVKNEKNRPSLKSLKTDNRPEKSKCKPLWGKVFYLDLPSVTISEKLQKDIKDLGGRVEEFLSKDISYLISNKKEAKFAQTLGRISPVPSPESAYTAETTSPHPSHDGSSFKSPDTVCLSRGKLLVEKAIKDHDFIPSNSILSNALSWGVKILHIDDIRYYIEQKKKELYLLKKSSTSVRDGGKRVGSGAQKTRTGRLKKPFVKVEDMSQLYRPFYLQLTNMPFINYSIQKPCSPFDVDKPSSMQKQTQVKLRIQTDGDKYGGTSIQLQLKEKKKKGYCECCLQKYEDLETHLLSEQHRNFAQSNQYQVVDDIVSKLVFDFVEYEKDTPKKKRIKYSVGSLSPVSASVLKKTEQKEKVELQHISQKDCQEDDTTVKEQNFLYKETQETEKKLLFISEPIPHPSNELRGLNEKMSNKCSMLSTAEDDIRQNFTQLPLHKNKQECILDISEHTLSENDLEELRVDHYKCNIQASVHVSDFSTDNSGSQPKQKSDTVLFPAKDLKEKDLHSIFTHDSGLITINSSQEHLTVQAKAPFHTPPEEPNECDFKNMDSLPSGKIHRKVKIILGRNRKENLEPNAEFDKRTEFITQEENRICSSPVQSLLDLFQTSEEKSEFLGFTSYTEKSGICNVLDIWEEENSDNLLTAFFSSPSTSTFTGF
CDC7/DBF4 (Cell division cycle 7-related protein kinase/Activator of S phase kinase), sequence (O00311 whole entry): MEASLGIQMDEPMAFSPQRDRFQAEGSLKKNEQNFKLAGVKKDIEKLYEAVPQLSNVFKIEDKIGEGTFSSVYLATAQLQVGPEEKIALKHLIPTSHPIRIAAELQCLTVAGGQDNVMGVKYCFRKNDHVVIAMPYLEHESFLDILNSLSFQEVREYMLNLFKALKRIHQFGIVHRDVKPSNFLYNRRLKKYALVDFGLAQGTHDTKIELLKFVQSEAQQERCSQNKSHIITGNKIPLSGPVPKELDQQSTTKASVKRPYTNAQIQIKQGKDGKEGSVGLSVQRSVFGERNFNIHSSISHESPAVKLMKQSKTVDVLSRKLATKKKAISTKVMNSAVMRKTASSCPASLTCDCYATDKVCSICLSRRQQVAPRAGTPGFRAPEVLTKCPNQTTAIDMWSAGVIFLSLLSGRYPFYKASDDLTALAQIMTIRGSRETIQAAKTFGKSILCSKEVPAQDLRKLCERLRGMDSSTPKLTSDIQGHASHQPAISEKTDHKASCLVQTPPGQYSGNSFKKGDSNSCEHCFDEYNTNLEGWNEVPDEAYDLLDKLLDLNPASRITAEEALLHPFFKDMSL

IC50 | Compound
< 1 µM | CC(C)[C@H](N)c1nc2cc(-c3ccnc(Cl)c3)sc2c(=O)[nH]1
< 1 µM | Cc1cc(-c2cc3nc([C@@H](N)C(C)C)[nH]c(=O)c3s2)ccn1
< 1 µM | CC[C@H](N)c1nc2cc(-c3ccnc(F)c3)sc2c(=O)[nH]1
< 10 µM | CN[C@H](c1nc2cc(-c3ccnc(F)c3)sc2c(=O)[nH]1)C(C)C
